For twelve compounds, GI50 and TGI results are on record in PubChem BioAssay (NCI).

The structures appear in SMILES notation.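 Exposure lasted 48 hours, with cells grown in 96-well plates and compounds tested at five concentrations. At the GI50, growth is halved. TGI: concentration producing complete growth inhibition.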

The first experiment deals with MOLT-4 leukemia. Nature of the experiment: NCI tumour cell line growth inhibition, 48 h.
For `COc1ccc(C(=S)N2CCN(c3cccc(Cl)c3)CC2)cc1`, the GI50 is greater than 100 µM and the TGI is greater than 100 µM.

Another experiment deals with SF-268 CNS. Description: NCI tumour cell line growth inhibition, 48 h.
On to `Cc1ccc2c(C(C[N+](=O)[O-])c3cccs3)c(-c3ccccc3)[nH]c2c1` (stereo not given), for which the GI50 is 2.77 µM and the TGI is 11.5 µM.
`N/C(CC(=O)Nc1cc(C(F)(F)F)ccc1Cl)=N\O` had a TGI greater than 100 µM.
Turning to `C#Cc1cnc(=O)n(C2CC(O)C(CO)O2)c1` (stereo not given), the GI50 was greater than 100 µM and the TGI is greater than 100 µM.
On to `COc1c(C2CC(=O)Nc3c2cnn3Cc2ccco2)cc2c(c1OC)OCO2` (stereo not given), for which the GI50 is 1.58 µM and the TGI is greater than 100 µM.
For `O=C(c1cccs1)c1c(C(F)(F)F)n([O-])c2ccccc2[n+]1=O` the same measures were 0.395 µM and 1.16 µM.
The compound `CC(CO)(CO)N=Cc1cc(I)cc(I)c1O` displayed a TGI of 36.5 µM.
Turning to `CCN1CCN(c2nc(NCCCNc3ccnc4cc(Cl)ccc34)c3ccccc3n2)CC1`, the GI50 is 2.59 µM and the TGI came out at 10.7 µM.
On to `CC1(C)N=C(N)N=C(N)N1c1ccc(CCCCc2ccc(S(=O)(=O)F)cc2)cc1`, for which the GI50 was 0.704 µM and the TGI turned out to be 16.9 µM.
Consider `NC(N)=N/N=C(/c1ccccc1)c1ccc(F)cc1`, for which the GI50 was 0.543 µM and the TGI turned out to be 14.4 µM.
For `COc1cc(C(=O)NC2c3ccccc3-c3ccccc32)c(N)cc1OCc1ccccc1` the same measures were 16.8 µM and greater than 62.1 µM.
Consider `Oc1ccccc1/C=N/Nc1ccc2ccccc2n1`, for which the GI50 is 3.09 µM and the TGI was 69.3 µM.
On to `COc1ccc(C(=S)N2CCN(c3cccc(Cl)c3)CC2)cc1`, for which the GI50 was greater than 100 µM and the TGI is greater than 100 µM.

The subject of the next experiment is SK-MEL-28 melanoma. Nature of the experiment: NCI tumour cell line growth inhibition, 48 h.
In the case of `Cc1ccc2c(C(C[N+](=O)[O-])c3cccs3)c(-c3ccccc3)[nH]c2c1` (stereo not given), the GI50 was 2.99 µM and the TGI was found to be 8.41 µM.
With `N/C(CC(=O)Nc1cc(C(F)(F)F)ccc1Cl)=N\O`, the TGI was greater than 100 µM.
As for `C#Cc1cnc(=O)n(C2CC(O)C(CO)O2)c1` (stereo not given), the GI50 is greater than 100 µM and the TGI is greater than 100 µM.
`COc1c(C2CC(=O)Nc3c2cnn3Cc2ccco2)cc2c(c1OC)OCO2` (stereo not given) yielded a TGI greater than 100 µM.
As for `O=C(c1cccs1)c1c(C(F)(F)F)n([O-])c2ccccc2[n+]1=O`, the GI50 was 5.59 µM and the TGI was determined as 14.5 µM.
`CC(CO)(CO)N=Cc1cc(I)cc(I)c1O`: the TGI was determined as 38.7 µM.
Take `CCN1CCN(c2nc(NCCCNc3ccnc4cc(Cl)ccc34)c3ccccc3n2)CC1`: the GI50 is 1.91 µM and the TGI worked out at 3.9 µM.
The like results for `CC1(C)N=C(N)N=C(N)N1c1ccc(CCCCc2ccc(S(=O)(=O)F)cc2)cc1` were, in that order, 4.57 µM and 20.3 µM.
For `NC(N)=N/N=C(/c1ccccc1)c1ccc(F)cc1` the same measures were 0.528 µM and 23 µM.
For `COc1cc(C(=O)NC2c3ccccc3-c3ccccc32)c(N)cc1OCc1ccccc1` the same measures were 25.2 µM and greater than 92.7 µM.
Regarding `Oc1ccccc1/C=N/Nc1ccc2ccccc2n1`, the GI50 is 11.8 µM and the TGI was greater than 100 µM.
As to `COc1ccc(C(=S)N2CCN(c3cccc(Cl)c3)CC2)cc1`, the GI50 was greater than 100 µM and the TGI is greater than 100 µM.

Another experiment has as its system SK-OV-3 ovarian. Description: NCI tumour cell line growth inhibition, 48 h.
On to `Cc1ccc2c(C(C[N+](=O)[O-])c3cccs3)c(-c3ccccc3)[nH]c2c1` (stereo not given), for which the GI50 is 3.44 µM and the TGI worked out at 19.7 µM.
In turn, `N/C(CC(=O)Nc1cc(C(F)(F)F)ccc1Cl)=N\O` returned a TGI greater than 100 µM.
As for `C#Cc1cnc(=O)n(C2CC(O)C(CO)O2)c1` (stereo not given), the GI50 is greater than 100 µM and the TGI is greater than 100 µM.
Turning to `COc1c(C2CC(=O)Nc3c2cnn3Cc2ccco2)cc2c(c1OC)OCO2` (stereo not given), the GI50 is 0.858 µM and the TGI was greater than 24.9 µM.
For `O=C(c1cccs1)c1c(C(F)(F)F)n([O-])c2ccccc2[n+]1=O` the same measures were 2.11 µM and 7.56 µM.
The compound `CC(CO)(CO)N=Cc1cc(I)cc(I)c1O` came in with a TGI of 41.9 µM.
Take `CCN1CCN(c2nc(NCCCNc3ccnc4cc(Cl)ccc34)c3ccccc3n2)CC1`: the GI50 is 2.98 µM and the TGI was determined as 9.23 µM.
The like results for `CC1(C)N=C(N)N=C(N)N1c1ccc(CCCCc2ccc(S(=O)(=O)F)cc2)cc1` were, in that order, 15.5 µM and greater than 85 µM.
For `NC(N)=N/N=C(/c1ccccc1)c1ccc(F)cc1` the same measures were 0.371 µM and 12.8 µM.
For `COc1cc(C(=O)NC2c3ccccc3-c3ccccc32)c(N)cc1OCc1ccccc1` the same measures were 16.9 µM and 43.8 µM.
Regarding `Oc1ccccc1/C=N/Nc1ccc2ccccc2n1`, the GI50 was 9.69 µM and the TGI was greater than 100 µM.
With `COc1ccc(C(=S)N2CCN(c3cccc(Cl)c3)CC2)cc1`, the GI50 is greater than 100 µM and the TGI is greater than 100 µM.

For another experiment, the system named is SNB-19 CNS. Nature of the experiment: NCI tumour cell line growth inhibition, 48 h.
With `Cc1ccc2c(C(C[N+](=O)[O-])c3cccs3)c(-c3ccccc3)[nH]c2c1` (stereo not given), the GI50 was 1.72 µM and the TGI is 7.05 µM.
For the compound `N/C(CC(=O)Nc1cc(C(F)(F)F)ccc1Cl)=N\O`, the TGI is greater than 100 µM.
Compound `C#Cc1cnc(=O)n(C2CC(O)C(CO)O2)c1` (stereo not given) showed a TGI greater than 23 µM.
Turning to `COc1c(C2CC(=O)Nc3c2cnn3Cc2ccco2)cc2c(c1OC)OCO2` (stereo not given), the GI50 is greater than 100 µM and the TGI was greater than 100 µM.
For the compound `O=C(c1cccs1)c1c(C(F)(F)F)n([O-])c2ccccc2[n+]1=O`, the GI50 was 5.67 µM and the TGI is 13.2 µM.
On to `CC(CO)(CO)N=Cc1cc(I)cc(I)c1O`, for which the TGI is 48.9 µM.
Turning to `CCN1CCN(c2nc(NCCCNc3ccnc4cc(Cl)ccc34)c3ccccc3n2)CC1`, the GI50 is 2.96 µM and the TGI amounted to 11.5 µM.
Turning to `CC1(C)N=C(N)N=C(N)N1c1ccc(CCCCc2ccc(S(=O)(=O)F)cc2)cc1`, the GI50 is 2.58 µM and the TGI came to 19.4 µM.
Consider `NC(N)=N/N=C(/c1ccccc1)c1ccc(F)cc1`, for which the GI50 is 0.476 µM and the TGI is 19.5 µM.
For `COc1cc(C(=O)NC2c3ccccc3-c3ccccc32)c(N)cc1OCc1ccccc1` the same measures were 22.6 µM and 58 µM.
Consider `Oc1ccccc1/C=N/Nc1ccc2ccccc2n1`, for which the GI50 was 5.39 µM and the TGI is greater than 100 µM.
For `COc1ccc(C(=S)N2CCN(c3cccc(Cl)c3)CC2)cc1` the same measures were greater than 100 µM and greater than 100 µM.

The subject of a further experiment is TK-10 renal. Nature of the experiment: NCI tumour cell line growth inhibition, 48 h.
With `Cc1ccc2c(C(C[N+](=O)[O-])c3cccs3)c(-c3ccccc3)[nH]c2c1` (stereo not given), the GI50 is 7.46 µM and the TGI worked out at 18.5 µM.
`N/C(CC(=O)Nc1cc(C(F)(F)F)ccc1Cl)=N\O` came in with a TGI greater than 100 µM.
`C#Cc1cnc(=O)n(C2CC(O)C(CO)O2)c1` (stereo not given): the GI50 is greater than 100 µM and the TGI is greater than 100 µM.
`COc1c(C2CC(=O)Nc3c2cnn3Cc2ccco2)cc2c(c1OC)OCO2` (stereo not given): the GI50 is 11.3 µM and the TGI is greater than 100 µM.
For `O=C(c1cccs1)c1c(C(F)(F)F)n([O-])c2ccccc2[n+]1=O` the same measures were 1.6 µM and 5.43 µM.
Consider `CC(CO)(CO)N=Cc1cc(I)cc(I)c1O`, for which the TGI came out at 84.2 µM.
For `CCN1CCN(c2nc(NCCCNc3ccnc4cc(Cl)ccc34)c3ccccc3n2)CC1`, the GI50 is 2.17 µM and the TGI stood at 4.79 µM.
For `CC1(C)N=C(N)N=C(N)N1c1ccc(CCCCc2ccc(S(=O)(=O)F)cc2)cc1`, the GI50 was 1.14 µM and the TGI was found to be 17.6 µM.
In the case of `NC(N)=N/N=C(/c1ccccc1)c1ccc(F)cc1`, the GI50 is 0.506 µM and the TGI worked out at 18.4 µM.
As to `COc1cc(C(=O)NC2c3ccccc3-c3ccccc32)c(N)cc1OCc1ccccc1`, the GI50 was 26.2 µM and the TGI amounted to 69.6 µM.
The like results for `Oc1ccccc1/C=N/Nc1ccc2ccccc2n1` were, in that order, 7.69 µM and 77.5 µM.
For `COc1ccc(C(=S)N2CCN(c3cccc(Cl)c3)CC2)cc1` the same measures were greater than 100 µM and greater than 100 µM.
